Experimental findings from patent publication US20230348401A1, “Inhibitors of Glucose-6-phosphate Dehydrogenase and Uses Thereof” (The Trustees of Princeton University, priority 2020, published 2023) are described below.

Like-named read-outs stand apart in the source and are kept apart here.

In assay [1] the target is T1, G6PD (Homo sapiens, UniProt P11413). Description: 6-pg levels in HepG2 cells (cellular target engagement). In kind it is cell-based. Also noted: endogenous in cells. The settings on record: for dose-dependent decrease in 6-pg levels: dose-response. The text has this: Direct Monitoring of 6-pg in cells. The metabolite 6-phosphogluconate (6-pg) is a downstream product of the G6PD reaction, and is believed to be made predominantly by the oxidative pentose phosphate pathway in mammalian cells. Though the direct product of G6PD is the lactone form of 6-pg (6-phosphogluconolactone), this product is believed to readily hydrolyze to 6-pg under cellular conditions, and is therefore difficult to detect. Thus, to directly monitor the G6PD reaction, methods for measuring 6-pg levels in intact cells were developed.
To explore this possibility further, more specific assays for evaluating G6PD cellular target engagement were developed. […] These included the hepatocellular carcinoma line, HepG2, which was selected as the primary cell for direct 6-pg monitoring. Consistent with the oxPPP being the primary source of 6-pg in these cells, G6PD knockout led to nearly complete 6-pg loss (FIGS. 1B and 1C).
(§1) For analysis of intracellular metabolites by LC-MS, adherent cell lines were plated and grown to 80% confluency in 6-well plates. At the start of an experiment, the appropriate media was added to cells, which included isotope tracers and/or chemical inhibitors as described. Cells were incubated at 37° C. at 5% CO2 for 2 hours (unless otherwise noted). For all experiments involving small molecule agents, DMSO concentrations were <0.2%. After 2 hours, media was removed by aspiration and metabolome extraction was performed (without any wash steps) by the addition of 800 µL of ice cold solvent (40:40:20 acetonitrile:methanol:water + 0.5% formic acid). After a 1-minute incubation on ice, the extract was neutralized by the addition of NH4HCO3 (15% w/v). The samples were incubated at -20° C. for approximately 30 minutes, at which point the wells were scraped and the extract transferred to Eppendorf tubes and centrifuged (15 minutes, 16000 rpm, 4° C.). The resulting supernatant was frozen on dry ice and kept at -80° C. until LC-MS analysis.
Metabolites were analyzed using a quadrupole-orbitrap mass spectrometer (Q Exactive Plus, Thermo Fisher Scientific, Waltham, MA), coupled to hydrophilic interaction chromatography (HILIC) with LC separation on a XBridge BEH Amide column (Waters), or a stand-alone orbitrap (Thermo-Fisher Exactive) coupled to reversed-phase ion-pairing chromatography with LC separation on a HSS-T3 column (Waters). Both mass spectrometers were operating in negative ion mode and were coupled to their respective liquid chromatography methods via electrospray-ionization. Detailed analytical conditions have been previously described.
Target sequence in this assay (P11413 whole entry): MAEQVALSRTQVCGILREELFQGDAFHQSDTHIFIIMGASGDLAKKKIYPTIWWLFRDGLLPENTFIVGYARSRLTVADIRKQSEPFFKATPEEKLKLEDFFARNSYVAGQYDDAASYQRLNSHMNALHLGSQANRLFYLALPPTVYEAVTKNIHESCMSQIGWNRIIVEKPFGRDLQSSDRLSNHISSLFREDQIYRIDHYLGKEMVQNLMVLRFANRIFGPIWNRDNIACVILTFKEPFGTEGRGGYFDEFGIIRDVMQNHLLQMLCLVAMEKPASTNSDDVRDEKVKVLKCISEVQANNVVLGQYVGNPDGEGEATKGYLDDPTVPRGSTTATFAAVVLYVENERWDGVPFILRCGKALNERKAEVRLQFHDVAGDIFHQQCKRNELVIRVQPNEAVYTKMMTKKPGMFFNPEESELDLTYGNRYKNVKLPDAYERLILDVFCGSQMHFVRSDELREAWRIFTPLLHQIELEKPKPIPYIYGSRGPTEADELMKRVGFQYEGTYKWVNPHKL

Assay [2] concerns the target T1, G6PD. Description: Cellular thermal shift assay (CETSA) in HepG2 lysates. In kind it is binding. Also noted: endogenous in cells. The following applies: up to 56° C. On the procedure:
Lysates from HepG2 cells at 75% confluence were isolated with 0.5% Triton in TBS (20 mM, Tris pH 7.4, 150 mM NaCl) for 30 min on ice, pre-cleared by centrifugation and used for thermal shift assay as described 49. Briefly, inhibitor or DMSO control was added to lysates at indicated concentration and incubated for 30 min on ice followed by 3 min heating at 47° C., 50° C., 53° C., and 56° C. in a thermal cycler. After heating, tubes were cooled at room temperature for 3 min and insoluble fraction removed by centrifugation at 17,000 g for 20 min. The soluble fraction was separated by SDS-PAGE, transferred to PVDF membrane, and immunoblotted using indicated antibodies at a dilution of 1:2000. Blots were developed by chemiluminescence and imaged using LI-COR C-DiGit Western Blot Scanner. Two independent experiments were performed. Signal intensity of proteins from immunoblots was quantified using Image Studio version 5.2 for C-DiGit Scanner, and bands were normalized to signal intensity of the 47° C. treated samples. Relative signal intensities were plotted as bar graph relative to the DMSO treated control.
Target sequence in this assay (P11413 whole entry): as above

Assay [3] addresses T1, G6PD. As to the kind of experiment: 2H transfer from 1-2H-glucose to NADPH active hydride and C16:0 in HCT116 cells. The settings on record: for dose-dependent decrease in 2H transfer from 1-2H-glucose to NADPH's active hydride: HCT116 cells, dose-response. In kind it is cell-based. Also noted: endogenous in cells; host or cells: HCT116.
Source text: Direct Monitoring of NADPH Produced by the G6PD Reaction. […] NADPH production is compartmentalized, and occurs through reduction of its redox partner NADP^+. G6PD is one of the main enzymes that generates NADPH, and catalyzes the transfer of electrons (in the form of hydride) from glucose-6-phosphate to NADP^+. By installing a deuterium at the “one” position of glucose (1-^2H-glucose), the transfer of that deuterium to the active hydride of NADPH via glucose-6-phosphate can be specifically monitored. Also, a major use of cytosolic NADPH is fat synthesis. Transfer of ^2H from glucose via NADPH into free palmitate (C16:0) requires two NADPH per two-carbon unit addition during its synthesis.
Next, G6PD mediated hydride transfer to NADPH was directly monitored. Specifically, transfer of deuterium from 1-^2H-glucose, via glucose-6-phosphate, to the NADPH’s active hydride was monitored (FIG. 1B). […] The impacted step was G6PD, as no change in substrate (G6P) labeling was observed (FIG. 1E). A major use of cytosolic NADPH is fat synthesis. Transfer of ^2H from glucose via NADPH into palmitate (C16:0), which requires two NADPH per 2-carbon unit addition during its synthesis, was quantified (FIG. 1B).
For all experiments involving stable isotope tracers (e.g., 1-^2H-glucose), the isotope tracer nutrient was substituted for unlabeled nutrient at the same concentration normally found in the base media for a given cell type (e.g., DMEM for HCT116, RPMI for T cells, etc.). In addition, dialyzed FBS was used as a supplement in place of FBS.
Cytosolic NADPH sources were traced, and redox active hydride labeling was calculated, using a previously described strategy. 1-^2H-glucose (which directly traces G6PD) or 3-^2H-glucose (which directly traces PGD) were used for tracing oxPPP contribution to NADPH; 4-^2H-glucose for ME1; [2,3,3,4,4-^2H5]-glutamine, for both ME1 and IDH1; and D2O, to account for solvent exchange.
as §1
Target sequence in this assay (P11413 whole entry): as above

The target of assay [4] is T1, G6PD. Description: G6PD enzymatic activity by diaphorase-coupled assay.
Target sequence in this assay (P11413 28-515): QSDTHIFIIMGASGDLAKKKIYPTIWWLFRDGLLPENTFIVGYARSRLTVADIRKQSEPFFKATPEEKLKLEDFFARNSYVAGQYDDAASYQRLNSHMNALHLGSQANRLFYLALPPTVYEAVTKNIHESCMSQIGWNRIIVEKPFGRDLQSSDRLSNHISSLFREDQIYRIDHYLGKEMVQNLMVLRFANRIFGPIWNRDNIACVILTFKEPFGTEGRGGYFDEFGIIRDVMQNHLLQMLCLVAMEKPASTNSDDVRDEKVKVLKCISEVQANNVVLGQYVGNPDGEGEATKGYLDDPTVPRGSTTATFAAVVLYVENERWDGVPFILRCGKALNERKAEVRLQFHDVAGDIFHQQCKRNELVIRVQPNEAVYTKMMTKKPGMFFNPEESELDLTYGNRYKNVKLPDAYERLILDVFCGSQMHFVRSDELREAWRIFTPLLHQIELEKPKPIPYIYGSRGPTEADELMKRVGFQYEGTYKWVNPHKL
For assay [5], the target named is T1, G6PD. As to the kind of experiment: G6PD enzymatic activity by LC-MS (6-pg production). The class given is biochemical. Further details: Partially truncated human G6PD (residues 28-515, Uniprot ID P11413); His6 with thrombin cleavage site (N, cleaved yes); made in house; host or cells: Escherichia coli BL21(DE3)pLysS. The settings on record: orthogonal LC-MS assay. On the procedure: Aliquots of reaction mixture were collected at indicated time points and rapidly quenched by diluting (1:5) into methanol precooled on dry ice. The mixtures were centrifuged at 13,000 rcf for 20 minutes at 4° C., and the resulting supernatants were diluted (1:20) into 40:40:20 methanol/ acetonitrile/ water and analyzed by LC-MS.
Target sequence in this assay (P11413 28-515): as above

Where [6] appears, read: Normalized in vitro IC50, Table 1, diaphorase-coupled biochemical assay, normalization to an intraplate control.

Usually IC50 stands for the point on the concentration scale where inhibition reaches its midpoint. As to `C[C@]12CC[C@H](O)CC1=CC[C@@H]1[C@@H]2CC[C@]2(C)C(=O)CC[C@@H]12` [DHEA, dehydroepiandrosterone], the 6-pg level entry in assay [1] (HepG2 cells, 100 µM, 2 hours) is “did not impact the 6-pg level”. Further, in assay [1] (HepG2 cells), the “dose-dependent decrease in 6-pg levels” value is given as “not”. Moreover, the “thermal stabilization of G6PD” value in assay [2] is listed as “not”. In assay [3] (100 µM, 2 hours), the “C16:0 labeling” value is recorded as “did not decrease” and the “NADPH active hydride labeling” value is “did not decrease”. Besides, the “dose-dependent decrease in 2H transfer from 1-2H-glucose to NADPH's active hydride” value in assay [3] was “not”. Further, the IC50 in assay [4] (IC50 (half-maximal inhibitory constant) against human G6PD, coupled enzymatic assay, recombinant human enzyme) was approximately 9.5 µM. `O=C1CCCc2nc(Nc3ccc4ncsc4c3)ncc21` [KG-0224-0]: in assay [4] (setting [6]), the IC50 fell in the range of 1 to 1000 µM. Same read-out and setting: next, `O=C1CCCc2nc(Nc3ccc4scnc4c3)ncc21` [KG-0227-0]: 1 to 1000 µM; `O=C1CCCc2nc(Nc3ccc4occc4c3)ncc21` [KG-0228-0]: 1 to 1000 µM; `O=C1CCCc2nc(Nc3ccc4cn[nH]c4c3)ncc21` [KG-0229-0]: 1 to 1000 µM. Consider `O=C1CCCc2nc(Nc3ccc4[nH]ncc4c3)ncc21` [KG-0232-0], for which, in assay [4] (setting [6]), the half-inhibitory concentration (IC50) was less than 1 µM. Compound `O=C(O)c1cccc(Nc2ncc3c(n2)CCCC3=O)c1` [KG-0237-0] returned an IC50 in assay [4] (setting [6]) of more than 1000 µM.

`NC(=O)c1cccc(Nc2ncc3c(n2)CCCC3=O)c1` [KG-0238-0] gave a half-inhibitory concentration (IC50) in assay [4] (setting [6]) of 1 to 1000 µM. Still for that read-out and setting: the value for `CCOc1cccc(Nc2ncc3c(n2)CCCC3=O)c1` [KG-0239-0] was 1 to 1000 µM; that for `O=C1CCCc2nc(Nc3cccc(CO)c3)ncc21` [KG-0240-0] was 1 to 1000 µM. `O=C1CCCc2nc(Nc3cccc(-c4nnn[nH]4)c3)ncc21` [KG-0241-0] had an IC50 in assay [4] (setting [6]) of 1 to 1000 µM.

In the case of `O=C1CCCc2nc(Nc3cccc(C4(O)COC4)c3)ncc21` [KG-0242-0], the IC50 in assay [4] (setting [6]) lay in the range of 1 to 1000 µM. In assay [4], `N#Cc1cccc(Nc2ncc3c(n2)CCCS3(=O)=O)c1` [KG-0249-0] registered an IC50 of 1 to 1000 µM.

As for `O=C1CCCc2nc(Nc3cccc(Oc4ccccc4)c3)ncc21` [KG-0251-0], in assay [4] (setting [6]), the IC50 was in the range of 1 to 1000 µM. Still for that read-out and setting: next, `O=C1CCCc2nc(Nc3cccc(OCc4ccccc4)c3)ncc21` [KG-0252-0]: 1 to 1000 µM. For `N#Cc1cc(Nc2ncc3c(n2)CCCC3=O)cs1` [KG-0254-0A], the IC50 in assay [4] was less than 1 µM. With `COc1cc(C#N)cc(Nc2ncc3c(n2)CCCC3=O)c1` [KG-0255-0], the concentration for half-maximal inhibition (IC50) in assay [4] (setting [6]) is less than 1 µM.

Consider `COc1cc(Cl)cc(Nc2ncc3c(n2)CCCC3=O)c1` [KG-0256-0], for which the IC50 in assay [4] (setting [6]) is less than 1 µM. The same measure, in the same setting: next, `O=C(Nc1ncc2c(n1)CCCC2=O)c1ccccc1` [KG-0258-0]: more than 1000 µM. `CO/N=C1\CCCc2nc(Nc3cccc(C#N)c3)ncc21` [KG-0260-0] displayed an IC50 in assay [4] of more than 1000 µM. The same measure, in the same setting: next, `N#Cc1cccc(Nc2ncc3c(n2)CCCC3O)c1` (centres unmarked) [KG-0261-10]: 1 to 1000 µM. Take `N#Cc1cc(Cl)cc(Nc2ncc3c(n2)CCCC3=O)c1` [KG-0265-0]: in assay [4] (setting [6]), the IC50 was less than 1 µM. `CCNC(=O)Nc1cccc(Nc2ncc3c(n2)CCCC3=O)c1` [KG-0283-0]: in assay [4] (setting [6]), the IC50 fell in the range of 1 to 1000 µM. On the same count and under the same terms, next, `N#Cc1cccc(Nc2ncc3c(n2)CCC(O)C3=O)c1` (centres unmarked) [KG-0315-0A]: less than 1 µM.

Regarding `N#Cc1cc(Nc2ncc3c(n2)CCC(Br)C3=O)cs1` (centres unmarked) [KG-0316], the IC50 in assay [4] was less than 1 µM. The same measure, in the same setting: next, `N#Cc1cc(Nc2ncc3c(n2)CCC(O)C3=O)cs1` (centres unmarked) [KG-0317]: less than 1 µM; `N#Cc1cc(Nc2ncc3c(n2)CCC(C(F)(F)F)C3=O)cs1` (centres unmarked) [KG-0318]: less than 1 µM; `COC1CCc2nc(Nc3csc(C#N)c3)ncc2C1=O` (centres unmarked) [KG-0321]: less than 1 µM. As for `N#Cc1cccc(Nc2ncc3c(n2)CCCC(O)C3=O)c1` (centres unmarked) [KG-0331], in assay [4], the half-maximal inhibitory concentration (IC50) was 1 to 1000 µM.

In turn, `O=C1c2cnc(Nc3cccc(Cl)c3)nc2CCCC1O` (centres unmarked) [KG-0332-0] returned a concentration for half-maximal inhibition (IC50) in assay [4] of 1 to 1000 µM. On the same count and under the same terms, the value for `N#Cc1cc(Nc2ncc3c(n2)CCCC(O)C3=O)cs1` (centres unmarked) [KG-0333-0] was less than 1 µM; that for `N#Cc1cccc(Nc2ncc3c(n2)CCCC(Br)C3=O)c1` (centres unmarked) [KG-0334] was less than 1 µM; that for `O=C1c2cnc(Nc3cccc(Cl)c3)nc2CCCC1Br` (centres unmarked) [KG-0335-0] was less than 1 µM.

`N#Cc1cc(Nc2ncc3c(n2)CCCC(Br)C3=O)cs1` (centres unmarked) [KG-0336-0] showed a half-inhibitory concentration (IC50) in assay [4] of less than 1 µM. Turning to `N#Cc1cc(Nc2ncc3c(n2)CCCCC3=O)c(C(F)(F)F)s1` [KG-0337-0A], the IC50 in assay [4] lay in the range of 1 to 1000 µM. Still for that read-out and setting: next, `N#Cc1cc(Nc2ncc3c(n2)CCCC(C(F)(F)F)C3=O)cs1` (centres unmarked) [KG-0337-0]: less than 1 µM; `N#Cc1cc(Nc2ncc3c(n2)CCCCC3=O)cs1` [KG-0338]: less than 1 µM. Compound `O=C1CCCCc2nc(Nc3cccc(F)c3)ncc21` [KG-0339] registered an IC50 in assay [4] (setting [6]) of less than 1 µM.

`CN(c1cccc(C#N)c1)c1ncc2c(n1)CCCC2=O` [neg-ctrl, 3-[methyl(5-oxo-5,6,7,8-tetrahydroquinazolin-2-yl)amino]benzonitrile]: the “6-pg production by recombinant human G6PD” value in assay [5] is “did not”. The “dose-dependent decrease in 6-pg levels” value in assay [1] (HepG2 cells) is given as “not”. The “dose-dependent decrease in 2H transfer from 1-2H-glucose to NADPH's active hydride” value in assay [3] was “not”. Moreover, the “activity against G6PD” value in assay [4] (in vitro) was “lacked any activity against G6PD”. Regarding `OC[C@H]1O[C@@H](Oc2cc(O)cc(/C=C/c3ccc(O)cc3)c2)[C@H](O)[C@@H](O)[C@@H]1O` [polydatin], the 6-pg levels entry in assay [1] (50 µM, 2 hours) is “failed to decrease”. In addition, the “NADPH active hydride labeling” value in assay [3] (50 µM, 2 hours) was “failed to decrease”.
